Data reported in paper PMC11013136, “Design, Synthesis, and Anti-Leukemic Evaluation of a Series of Dianilinopyrimidines by Regulating the Ras/Raf/MEK/ERK and STAT3/c-Myc Pathways” (Molecules, 2024).

How the values were obtained:
[1] = test system: HEL cells; assay: MTT cell viability assay, HEL cells; format: cell-based; details: for IC50: Homo sapiens, HEL, 48 h
Procedure: (§1) To estimate the effects of N-Phenyl-2-pyrimidinamine derivatives (Figure 1A) on HEL, K562, and Jurkat cells, we treated these cells with the compounds at different concentrations (1–20 μM) for 48 h. […] H-121 could selectively impair the proliferation of HEL and Jurkat cells. H-123 blocked the proliferation of the Jurkat cells. Those four compounds had no toxicity to the HL7702 cell line.
(§2) To validate the effects of H-120 on the viability of HEL cells, we treated the cells with the compound at different concentrations (1–20 μM) for 24 h, 48 h, and 72 h. […] However, H-120 was not cytotoxic on normal HL7702 (IC50 > 20 μM) (Figure 1B). The morphology of HEL cells treated with H-120 gradually crumpled and appeared fragmented (Figure 1E).
(§3) The logarithmically grown HEL cells were seeded in a 96-well culture plate at a density of 8000 cells per well and treated with different concentrations of H-120 (0.125 μM, 0.25 μM, 0.5 μM, and 1 μM) or 0.1% DMSO (control). After 24 h, 48 h, and 72 h treatment, the cells were added to 10 μL of MTT reagent for 4 h, and then added to 100 μL of triple cleavage fluid (SDS 10 g, isobutanol 5 mL and 10M HCl 0.1 mL, dissolved with ddH2O into 100 mL solution). After using a microscope to observe the completely dissolved crystal, the cells’ optical absorbance value was measured at 570 nm using an enzyme-labeling instrument (BioTek, Winooski, VT, United States). Inhibition rate = (OD value of DMSO group-OD value of experimental group)/OD value of DMSO group × 100%.
The logarithmically grown HEL cells were collected and planted in 96-well plates at a density of 8000 cells per well. After the cell state was stabilized, HEL cells were treated with H-120 solution (0.125 μM, 0.25 μM, 0.5 μM, 1 μM), and then the OD value was measured at 570 nm in different periods of time. The growth curves were plotted.

[2] = test system: Jurkat cells; assay: MTT cell viability assay, Jurkat cells; format: cell-based; details: Homo sapiens, 48 h
Procedure: as §1, §3

[3] = test system: K562 cells; assay: MTT cell viability assay, K562 cells; format: cell-based; details: Homo sapiens, 48 h
Procedure: as §1, §3

[4] = test system: HL7702 cells; assay: MTT cytotoxicity on normal hepatic cell line HL7702; format: cell-based; details: Homo sapiens, L02, 48 h
Procedure: as §1, §2, §3

[5] = test system: HEL cells; assay: Annexin V-FITC/PI apoptosis detection by flow cytometry; format: cell-based; details: 1 μM
Description: (§4) Apoptosis plays a crucial role in impairing cancer cell viability. To determine whether the H-120 inhibiting HEL cell growth is caused by apoptosis, we applied HEL cells with different concentrations of H-120. […] To explore the mechanism of apoptosis, we used JC-1 staining to detect the effect of H-120 on mitochondrial membrane potential. […] The results confirmed that H-120 can induce HEL cell apoptosis by impairing mitochondria.
For the apoptosis detection assay, the logarithmically grown HEL cells were treated with H-120 solution (0.125 μM, 0.25 μM, 0.5 μM, and 1 μM) for 24 h, 48 h, and 72 h. Subsequently, the cells were collected and rinsed three times with pre-cooled PBS. Based on the instruction of the Annexin V-FITC apoptosis detection kit, the cells were resuspended in 50 μL of 1 × binding buffer and stained for 15 minutes. Then, the apoptosis rate was determined using flow cytometry (ACEA NovoCyte, San Diego, CA, United States). For cell cycle analysis, HEL cells were treated with the different concentrations of H-120 (0.125 μM, 0.25 μM, 0.5 μM, 1 μM) for 24 h. […] Cells were stained with 0.5 mL of PI (propidium iodide, 50 µg/mL), RNase (5 µg/mL) inhibitor, and Triton × 100 (0.5 µg/mL) for 10 min at room temperature in the dark and then analyzed by flow cytometry.

[6] = test system: HEL cells; assay: JC-1 mitochondrial membrane potential assay; format: cell-based; details: 0.125-1 μM, 48 h, flow cytometry
Procedure: as §4
Cells (2 × 10^5) were seeded in a 2 mL medium with different concentrations of H-120 (0.125 μM, 0.25 μM, 0.5 μM, 1 μM). After being treated with H-120 for 48 h, the cells were preincubated with JC-1 working solution for 20 min at 37 °C, 5% CO2. After incubation, the dye was removed, and the cells were washed two times with JC-1 [48].

[7] = test system: HEL cells; assay: Cell cycle analysis (PI, flow cytometry); format: cell-based; details: 0.125-1 μM, 24 h
Procedure: (§5) Cell cycle regulation is critical for cell differentiation and proliferation. To investigate whether H-120 affects the cell cycle of HEL, we treated HEL cells with various concentrations of H-120.
For the apoptosis detection assay, the logarithmically grown HEL cells were treated with H-120 solution (0.125 μM, 0.25 μM, 0.5 μM, and 1 μM) for 24 h, 48 h, and 72 h. Subsequently, the cells were collected and rinsed three times with pre-cooled PBS. Based on the instruction of the Annexin V-FITC apoptosis detection kit, the cells were resuspended in 50 μL of 1 × binding buffer and stained for 15 minutes. Then, the apoptosis rate was determined using flow cytometry (ACEA NovoCyte, San Diego, CA, United States). For cell cycle analysis, HEL cells were treated with the different concentrations of H-120 (0.125 μM, 0.25 μM, 0.5 μM, 1 μM) for 24 h. Cells were collected, fixed with pre-cooled 70% ethanol, and kept at 4 °C for 4 h before being transferred to −20 °C overnight. Cells were stained with 0.5 mL of PI (propidium iodide, 50 µg/mL), RNase (5 µg/mL) inhibitor, and Triton × 100 (0.5 µg/mL) for 10 min at room temperature in the dark and then analyzed by flow cytometry.

[8] = test system: HEL cells; assay: Hoechst 33258 staining (DNA damage); format: cell-based; details: 0.125-1 μM, 24 h
Procedure: as §5
After subjecting HEL cells to H-120 solution (0.125 μM, 0.25 μM, 0.5 μM, 1μM) for 24 h, the cells were collected, resuspended, and washed with pre-cooled PBS. Subsequently, the cells were fixed, stained, and washed according to the instructions provided by the Apoptosis-Hoechst 33258 Staining Kit. To prevent fluorescence interference, an appropriate volume of anti-fluorescence quenching sealing solution was added to the cells. The cells were then placed on a spare slide, covered with a coverslip, and immediately observed and photographed using a Nikonfluorescence microscope.

[9] = test system: HEL cells; assay: Western blotting of cell cycle, apoptosis, Ras/Raf/MEK/ERK and STAT3/c-Myc proteins; format: cell-based; details: Western blot
Description: as §5
To study the effect of H-120 on apoptosis proteins, we treated HEL cells with various concentrations of H-120.
To assess whether the effect of H-120 on HEL cells is involved in the inactivation of Ras/Raf/MEK/ERK/MAPK signaling pathway, we tracked this pathway bottom-up in HEL cells treated with H-120 using Western blotting.
To examine the effect of H-120 on the p-STAT3 and c-Myc, we checked the p-STAT3 and c-Myc levels in HEL cells treated with H-120. […] STAT3 acts through its phosphorylation and enters nuclear. The nuclear–cytoplasmic separation experiment was conducted.
HEL cells were collected after 24 h of H-120 treatment and washed with PBS, and the supernatant was discarded. According to the instructions of the Nuclear and Cytoplasmic Protein Extraction Kit (Beyotime Biotechnology, Shanghai, China), we added cytoplasmic protein extraction reagent A equipped with PMSF (phenylmethanesulfonyl fluoride) and used vigorous vortexing at 2500 rpm for 5 s to suspend and disperse the cell precipitation entirely. After 15 min of an ice bath, we added cytoplasmic protein extraction reagent B. The sample was vigorously vortexed at 2500 rpm for 5 s, then centrifuged at 4 °C for 5 min at 12,000× g, and the supernatant was extracted to leave a precipitate. The supernatant was the cytoplasmic protein. For the precipitate, the […] protein extraction reagent equipped with PMSF was added immediately, mixed, and then placed on ice. The highest-speed vigorous vortex was performed for 20 s every 2 min for 30 min, followed by centrifugation at 12,000× g at 4 °C for 10 min. Finally, the supernatant was taken as the nuclear protein.
HEL cells after drug action were collected, added to and mixed with cell lysis buffer, and […] on ice for one hour before protein concentration was detected using a BCA (bicinchoninic acid) kit. Proteins (50 μg) were separated by sodium dodecyl sulfate-polyacrylamide gel electrophoresis and transferred to a PVDF (polyvinylidene fluoride) membrane ([…], Bio-Rad, Hercules, CA, USA) via wet transfer. Then, 5% bovine serum albumin closed the membrane for 1 h, and the membrane was washed three times with TBS (20 mM Tris-HCl) for 5 min each time. Membranes were allowed to incubate with the primary antibody overnight at 4 °C. The anti-rabbit antibody secondary antibody was incubated at room temperature for 2 h. Then, the membrane was washed with 1× TBST (20 mM Tris-HCl, 0.1% Tween 20) for 15 min. After washing, the fetal membrane was scanned with an infrared imaging scanner. β-actin was used as a loading control.

[10] = test system: F-MuLV-induced leukemia mice; assay: F-MuLV-induced erythroleukemia mice; format: in vivo, BALB/c mice; details: for number of leukemic cells in the spleens (H&E staining): VCR 0.25 mg/kg, H-120 1-4 mg/kg intraperitoneally
Description: We used the F-MuLV-induced leukemia mice to determine the anti-leukemia activity of H-120. […] The effect of H-120 treatment is similar to that in the vincristine (VCR) treatment group (Figure 6A,C). […] The CD71 and Ter119 have been broadly used to reflect mice’s dynamic maturation of erythrocytes. We tested CD71 and Ter119 expression in spleen cells and bone marrow cells by using flow cytometry.
The NIH3T3 cells expressing the F-MuLV clone 57 vector were donated by Professor Ben-David Yaacov, Key Laboratory of Natural Product Chemistry, Chinese Academy of Sciences, Guizhou Province. In order to induce leukemia, BALB/c mice (male and females; Tongxin, Chongqing, China), aged one day, were administered a solitary intraperitoneal injection of F-MuLV. Then, infected neonates were weaned at 4 weeks and randomly divided into 6 groups: normal group (NC), model group (M), positive control group (VCR: 0.25 mg/kg), H-120 low dose group (H-120-L: 1 mg/kg), H-120 medium dose group (H-120-M: 2 mg/kg), and H-120 high dose group (H-120-H: 4 mg/kg). After 5 weeks of virus infection, mice were treated with H-120 intraperitoneally every other day for 3 weeks. The normal and model groups were given saline, and the control group was given vincristine intraperitoneally. Under the supervision of experienced staff, the leukemia mice were sacrificed humanely by cervical dislocation. Serum biochemical indexes of the mice were detected. The spleens of the mice were removed. A portion of the spleen was fixed in formaldehyde for 24 h, and paraffin was embedded and sliced. The effects of H-120 on the normal physiological structure of the spleen were observed by H&E staining. Then, part of the spleen tissue was ground and prepared into a single-cell suspension, which was stained with CD71, Ter119, CD4, CD8a, and B220 antibodies for 30 min, respectively. The expression of markers on the spleen cell surfaces of mice was analyzed by flow cytometry.

SMILES | IC50 [1] | IC50 [2] | IC50 [3] | IC50 [4] | number of leukemic cells in the spleens (H&E staining) ([10]; vs model group) | other results
CNC(=O)c1ccccc1Nc1nc(Nc2ccc(Nc3c(NC45CC6CC(CC(C6)C4)C5)c(=O)c3=O)cc2)ncc1C(F)(F)F [H-122, 2-((2-((4-((2-(((1R,3R,5S)-Adamantan-1-yl)amino)-3,4-dioxocyclobut-1-en-1-yl)amino)phenyl)amino)-5-(trifluoromethyl)pyrimidin-4-yl)amino)-N-methylbenzamide] | 11.5 ± 0.53 µM | 1.63 ± 0.28 µM | 16.3 ± 1.11 µM | > 20 µM | – | –
C=CC(=O)Nc1ccc(Nc2ncc(C)c(Nc3sccc3C(=O)NC)n2)cc1 [H-121, 2-((2-((4-Acrylamidophenyl)amino)-5-methylpyrimidin-4-yl)amino)-N-methylthiophene-3-carboxamide] | 8.78 ± 0.45 µM | 10.4 ± 0.238 µM | > 20 µM | > 20 µM | – | –
C#CC(=O)Nc1ccc(Nc2ncc(C)c(Nc3sccc3C(=O)NC)n2)cc1 [H-120, 2-[5-Methyl-2-(4-propynoylamino-phenylamino)-pyrimidin-4-ylamino]-thiophene-3-carboxylic acid methylamide] | 0.148 ± 0.04 µM | 0.665 ± 0.02 µM | 2.34 ± 0.22 µM | > 20 µM | decreased significantly | HEL cell proliferation ([1]; 24 h, 48 h and 72 h): prevented the HEL cell proliferation in a dose- and time-dependent manner; apoptosis rate of HEL cells ([5]; 48 h): 14.28%; apoptosis rate of HEL cells ([5]; 72 h): 36.45%; relative value of the JC-1 monomer [6]: significantly increased; proportion of the G2/M phase in HEL cells [7]: increased; DNA damage (Hoechst staining) [8]: caused DNA damage in a dose-dependent manner; Bad, cleaved caspase-9, cleaved caspase-3 and cleaved PARP expression [9]: up-regulated considerably; Bcl-2 and Bcl-xL expression [9]: significantly down-regulated; expressions of Ras, phosphorylated Raf, MEK and ERK [9]: significantly reduce; levels of cell cycle proteins p-CDC25C and CyclinB1 ([9]; dose-dependent): decreased; p53 level ([9]; dose-dependent): up-regulated; p-STAT3 and c-Myc levels ([9]; dose-dependent): significantly down-regulated; effects on renal and cardiac functions (URA, CREA, UA, CK-MB) ([10]; erythroleukemia mice): no effects; proportions of CD4, CD8a and B220 cells in spleen ([10]; flow cytometry): increased significantly; mature erythrocytes CD71-Ter119+ in spleen cells and bone marrow cells ([10]; flow cytometry, vs model group): significantly increased; levels of liver index, ALT and AST ([10]; vs model group): significantly lower; spleen weight ([10]; vs model mice, H-120 1, 2, 4 mg/kg intraperitoneally every other day for 3 weeks): significantly declined
CC[C@]1(O)C[C@H]2CN(CCc3c([nH]c4ccccc34)[C@@](C(=O)OC)(c3cc4c(cc3OC)N(C=O)[C@H]3[C@@](O)(C(=O)OC)[C@H](OC(C)=O)[C@]5(CC)C=CCN6CC[C@]43[C@@H]65)C2)C1 [VCR, Vincristine, reference compound] | – | – | – | – | decreased significantly | –
CNC(=O)c1ccsc1Nc1nc(Nc2ccc(Nc3c(NC45CC6CC(CC(C6)C4)C5)c(=O)c3=O)cc2)ncc1C(F)(F)F [H-123, 2-((2-((4-((2-(((1R,3R,5S)-Adamantan-1-yl)amino)-3,4-dioxocyclobut-1-en-1-yl)amino)phenyl)amino)-5-(trifluoromethyl)pyrimidin-4-yl)amino)-N-methylthiophene-3-carboxamide] | > 20 µM | 5.2 ± 1.17 µM | > 20 µM | > 20 µM | – | –
